Measured values taken from patent US10925280B2, “Solid agrochemical compositions” (UPL LIMITED, priority 2015, dated 2021).

What was measured:
[1] = Weight gain (uptake of moisture) at 30° C. and 60% humidity as per ASTM (1996) method; format: physicochemical
Text: (§1) It has been observed that the granular compositions according to the present inventions are dry solids as evidenced by the appearance. […] Further, the granules were appeared as dry solids after 6 months of storage. The inventors of the present invention confirmed the stability of the granules by investigating the weight gain of the compositions and by calculating the relative weight gain with respect to glufosinate salt. The weight gain of the granular compositions according to the present invention were investigated at 30° C. and 60% humidity as per ASTM (1996) method and the results are summarized in the below table (Table 3).
Relative % weight gain of the composition is calculated using the formula given below:
[formula] [formula] • wherein X is glufosinate ammonium technical

[2] = Physical appearance in open containers at ambient conditions; format: physicochemical
Text: The appearances for the granular compositions prepared according to the present invention were investigated in open containers at ambient conditions.
as §1

With `CP(=O)(O)CCC(N)C(=O)O` (stereo not shown) [Glufosinate ammonium, 2-amino-4-[hydroxy(methyl)phosphinoyl]butyric acid] the “% weight gain after 24 hrs” value ([1]; 24 hrs) was 1.834%, the “Weight of sample after 24 hrs” value ([1]; 24 hrs) was 1.0219 g and the “Relative % weight gain after 24 hrs” value ([1]; 24 hrs, relative to glufosinate ammonium technical) was 100%. The “Weight of sample” value ([1]; start) was 1.0035 g, the “Appearance at 0 hrs” value ([2]; 0 hrs) was “Dry solid” and the “Appearance After 24 hrs” value ([2]; 24 hrs) was “Wet solid”. The “Appearance After 72 hrs” value ([2]; 72 hrs) was “Liquid”.
